From US6967196B1, “Sulfonamide compounds and uses thereof” (Bristol-Myers Squibb Company, priority 1999, dated 2005)
pIC50: −log10 of the molar value.

Tested on: amyloid β production in transfected H4 (human neuroglioma) cells stably expressing APP constructs
Assay: In vitro cell-based assay of inhibitors of amyloid β production (ELISA)
Conditions: transfected H4 cells stably expressing APP constructs; approximately 16 hours incubation; amyloid β in medium by ELISA; read-out: ACTIVITY (IC50, inhibition of amyloid β production)
How it was run: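 H4 neuroglioma cells stably expressing APP constructs were dosed in fresh medium, screened initially at 10-100 μM, and incubated ~16 h. Medium Aβ was measured by ELISA with C-terminal-epitope capture and N-terminal detection antibodies, quantified from a standard curve, with dose-response testing of actives.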

Structure (SMILES) | pIC50
CCS(=O)(=O)CCC[C@@H](C)N(c1cc(Cl)ccc1Cl)S(=O)(=O)c1ccc(Cl)cc1 [Example 1164, 4-chloro-N-[2,5-dichlorophenyl]-N-[1(R)-methyl-(4-ethylsulfonyl]butyl]benzenesulfonamide] | ≥ 7.60
C[C@H](CCCS(C)(=O)=O)N(c1cc(Cl)ccc1F)S(=O)(=O)c1ccc(Cl)cc1 [Example 1165, 4-chloro-N-[5-chloro-2-fluorophenyl]-N-[1(R)-methyl-(4-methylsulfonyl)butyl]benzenesulfonamide] | ≥ 7.60
CCS(=O)(=O)CCC[C@@H](C)N(c1cc(F)ccc1F)S(=O)(=O)c1ccc(Cl)cc1 [Example 1166, 4-chloro-N-[2,5-difluorophenyl]-N-[1(R)-methyl-(4-ethylsulfonyl)butyl]benzenesulfonamide] | ≥ 7.60
C[C@H](CCC[S+](C)[O-])N(c1cc(Cl)ccc1F)S(=O)(=O)c1ccc(Cl)cc1 (stereo partly drawn) [Example 1167, 4-chloro-N-[5-chloro-2-fluorophenyl]-N-[1(R)-methyl-(4-methylsulfinyl)butyl]benzenesulfonamide] | ≥ 7.60
CC(C)[S+]([O-])CCC[C@@H](C)N(c1cc(Cl)ccc1Cl)S(=O)(=O)c1ccc(Cl)cc1 (stereo partly shown) [Example 1169] | ≥ 7.60
C[C@H](CCCS(C)(=O)=O)N(c1cc(F)ccc1F)S(=O)(=O)c1ccc(Cl)cc1 [Example 1170, 4-chloro-N-[2,5-difluorophenyl]-N-[1(R)-methyl-(4-methylsulfonyl)butyl]benzenesulfonamide] | ≥ 7.60
C[C@H](CCC[S+](C)[O-])N(c1cc(Cl)ccc1Cl)S(=O)(=O)c1ccc(Cl)cc1 (stereo partly drawn) [Example 1171, 4-chloro-N-[2,5-dichlorophenyl]-N-[1(R)-methyl-(4-methylsulfinyl)butyl]benzenesulfonamide] | ≥ 7.60
CC[S+]([O-])CCC[C@@H](C)N(c1cc(Cl)ccc1Cl)S(=O)(=O)c1ccc(Cl)cc1 (stereo partly drawn) [Example 1172, 4-chloro-N-[2,5-dichlorophenyl]-N-[1(R)-methyl-(4-ethylsulfinyl)butyl]benzenesulfonamide] | ≥ 7.60
CC[S+]([O-])CCCC[C@@H](C)N(c1cc(Cl)ccc1Cl)S(=O)(=O)c1ccc(Cl)cc1 (stereo partly drawn) [Example 1173, 4-chloro-N-[2,5-dichlorophenyl]-N-[1(R)-methyl-(5-ethylsulfinyl)pentyl]benzenesulfonamide] | ≥ 7.60
CC[S+]([O-])CCC[C@@H](C)N(c1cc(F)ccc1F)S(=O)(=O)c1ccc(Cl)cc1 (stereo partly drawn) [Example 1174, 4-chloro-N-[2,5-difluorophenyl]-N-[1(R)-methyl-(4-ethylsulfinyl)butyl]benzenesulfonamide] | ≥ 7.60
C[C@H](CCC[S+](C)[O-])N(c1cc(F)ccc1F)S(=O)(=O)c1ccc(Cl)cc1 (stereo partly drawn) [Example 1175, 4-chloro-N-[2,5-difluorophenyl]-N-[1(R)-methyl-(4-methylsulfinyl)butyl]benzenesulfonamide] | ≥ 7.60
CSCCC[C@@H](C)N(c1cc(Cl)ccc1Cl)S(=O)(=O)c1ccc(Cl)cc1 [Example 1176, 4-chloro-N-[2,5-dichlorophenyl]-N-[1(R)-methyl-(4-methylthio)butyl]benzenesulfonamide] | ≥ 7.60
CCSCCC[C@@H](C)N(c1cc(F)ccc1F)S(=O)(=O)c1ccc(Cl)cc1 [Example 1177, 4-chloro-N-[2,5-difluorophenyl]-N-[1(R)-methyl-(4-ethylthio)butyl]benzenesulfonamide] | ≥ 7.60
CSCCC[C@@H](C)N(c1cc(Cl)ccc1F)S(=O)(=O)c1ccc(Cl)cc1 [Example 1178, 4-chloro-N-[5-chloro-2-fluorophenyl]-N-[1(R)-methyl-(4-methylthio)butyl]benzenesulfonamide] | ≥ 7.60
CC(C)[S+]([O-])CCC[C@@H](C)N(c1cc(F)ccc1F)S(=O)(=O)c1ccc(Cl)cc1 (stereo partly shown) [Example 1179] | ≥ 7.60
CCS(=O)(=O)CC[C@@H](C)N(c1cc(Cl)ccc1Cl)S(=O)(=O)c1ccc(Cl)cc1 [Example 1180, 4-chloro-N-[2,5-dichlorophenyl]-N-[1(R)-methyl-(3-ethylsulfonyl)propyl]benzenesulfonamide] | ≥ 7.60
